Consider one compound from patent publication US20090062222A1, “Methods for Sensitizing Cancer Cells to Inhibitors” (TRUSTEES OF BOSTON UNIVERSITY, priority 2005, published 2009).

Like-named read-outs stand apart in the source and are kept apart here.

The subject of data set [1] is HSP72 induction (CHO cells). Description: Inhibition of Hsp72 induction by heat shock in CHO cells (immunoblotting). It is filed as cell-based.
A further data set has as its system CHO cells. As to the kind of experiment: Toxicity in CHO cells. The format is cell-based. To be noted: CHO cells. The source says: Three of these compounds, including emetine, tubulosine, and NZ28, have significant structural similarity.
Data set [2] relates to HSP72. Description: HSP72 induction in MM.1S cells (heat shock, proteasome or HSP90 inhibitors), immunoblotting. To be noted: for inhibition at 2 µM: Homo sapiens, MM1.S, MM.1s, read-out: HSP72 Inhibition, by NZ28 (2 μM). The format is cell-based, human.
Data set [3] relates to HSP72. As to the kind of experiment: HSP72 induction in PC-3 cells (heat shock, proteasome or HSP90 inhibitors), immunoblotting. The conditions noted are these: for inhibition at 2 µM: Homo sapiens, read-out: HSP72 Inhibition, by NZ28 (2 μM). The format is cell-based, human.
The test system of data set [4] is luciferase under the tet-off promoter. Description: General protein synthesis: luciferase induction under tet-off promoter in CHO cells. It is filed as cell-based. The conditions noted are these: 24 hours, NZ28 1 and 2 μM.
For another data set, the system named is CMV-driven GFP. As to the kind of experiment: General protein synthesis: CMV-driven GFP expression in CHO cells. It is filed as cell-based. The conditions noted are these: added 16 hours post-infection, 24 hours, NZ28 2 μM, emunin 10 μM.
A further data set has as its system MM.1S cells. As to the kind of experiment: Apoptosis by PARP cleavage in MM.1S cells. To be noted: 0.1 μM radicicol 48 h, 2 μM NZ28.
In data set [5] the test system is HSP72. Description: HSP72 induction in MEF cells (proteasome or HSP90 inhibitors), immunoblotting. The conditions noted are these: Mus musculus, read-out: HSP72 Inhibition, by NZ28 (2 μM).
The test system of another data set is HSP27. Description: HSP27 induction by proteasome and HSP90 inhibitors in MM.1S cells, immunoblotting. To be noted: VELCADE or Radicicol, emunin 10 μM, NZ28 2 μM added 5 hours before.
Data set [6] deals with HSF1-activated Hsp70B promoter. As to the kind of experiment: HSF1 activity: luciferase reporter under Hsp70B promoter in PC-3 cells after heat shock. To be noted: added 5 hours before 45° C. 10 min, overnight recovery.

For `CCC1=C(CC2NCCc3ccccc32)CC2c3cc(OC)c(OC)cc3CCN2C1` (stereo not shown) [NZ28], the “Inhibition of Hsp72 induction, second step of the screening” value in data set [1] (2 μM, CHO cells, 45° C. 10 min, then 6 hours at 37° C.) was “inhibit Hsp72 induction”. Also, the inhibition at 2 µM in data set [1] (Cricetulus griseus, 10 min, CHO, Heat Shock 45° C., 10 min, 2 μM, read-out: HSP72 Inhibition, by NZ28 (2 μM)) is 99%; in the data set with HSP72 [2] (4 min, Heat Shock 45° C., 4 min), 100%; in the data set with HSP72 [2] (HSP90 Inhibitor Radicicol 0.8 μM), 90%; in the data set with HSP72 [2] (Proteasome Inhibitor VELCADE 5 nM), 100%; in the data set with HSP72 [3] (PC-3, 20 min, PC-3, Heat Shock 45° C., 20 min) it was 85%; with HSP72 [3] (PC-3, PC-3, HSP90 Inhibitor 17-AAG 2 μM) it was 70%. Also, the inhibition at 2 µM with HSP72 [3] (PC-3, PC-3, Proteasome Inhibitor MG132 1 μM) is 90%; with HSP72 [5] it was 100%. The IC50 in [1] (Cricetulus griseus, CHO cells, heat shock (FIGS. 3A and 3B), read-out: IC50 for inhibition of Hsps induction) came to 1 µM; in [1] (Cricetulus griseus, CHO cells, heat shock, read-out: IC50 HSP72 Induction Inhibition (CHO cells)), 1 µM; in the data set with CHO cells (Cricetulus griseus, read-out: IC50 toxicity) it was 5 µM. For the same compound, the Cell growth inhibition result with CHO cells is reported as “slight growth inhibition”. Further, in the data set on CHO cells, the “Toxicity” value is reported as “did not show toxicity”. In the data set with HSP72 [2] (MM.1S blocked stronger than PC-3), the “Inhibition of Hsp72 induction in response to Hsp90 inhibitors radicicol and 17-AAG” value is reported as “inhibited induction of Hsp72”. Moreover, in the data set with HSP72 [2] (MM.1S, VELCADE or MG132 for 16 hours), the “Inhibition of HSP72 induction by proteasome inhibitors” value is recorded as “almost completely inhibited HSP72 induction”. Further, the “Inhibition of Hsp72 induction by 17-AAG” value in the data set with HSP72 [3] (PC-3 cells) was “significant but transient”. In addition, the “Inhibition of luciferase expression (tet-off promoter)” value in data set [4] is reported as “Neither NZ28 (FIG. 3C) nor emunin (not shown) inhibited luciferase expression”. In addition, the “Inhibition of GFP expression (CMV promoter)” value in the data set with CMV-driven GFP was “No significant inhibition of GFP expression”. Moreover, the “Sensitization to radicicol (PARP cleavage)” value in the data set with MM.1S cells was “similarly sensitized”. Further, the “Inhibition of Hsp27 induction” value in the data set on HSP27 was “inhibit HSP72 and HSP27 induction”. Moreover, the “Inhibition of luciferase induction by heat shock (Hsp70B promoter reporter)” value in data set [6] is “about 40%”.
